Measurements published in patent US20250255874A1, “Methods for Treating Immune Thrombocytopenia By Administering (R)-2-[3-[4-Amino-3-(2-Fluoro-4-Phenoxy-Phenyl)Pyrazolo[3,4-D]Pyrimidin-1-YL]Piperidine-1-Carbonyl]-4-Methyl-4-[4-(Oxetan-3-YL)Piperazin-1-YL]Pent-2-Enentrile” (Principia Biopharma Inc., priority 2022, published 2025).

Tested on: patients with relapsed/refractory immune thrombocytopenia
Test: Phase 1/2 study (NCT03395210) Part A, safety;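 also: adverse events graded by NCI CTCAE version 4.0, with worsening of pre-existing conditions counted as adverse events, analysed in the Safety Population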
Conditions: Safety Population; N = 60

CC(C)(C=C(C#N)C(=O)N1CCC[C@@H](n2nc(-c3ccc(Oc4ccccc4)cc3F)c3c(N)ncnc32)C1)N1CCN(C2COC2)CC1 [rilzabrutinib, (R)-2-[3-[4-amino-3-(2-fluoro-4-phenoxy-phenyl)pyrazolo[3,4-d]pyrimidin-1-yl]piperidine-1-carbonyl]-4-methyl-4-[4-(oxetan-3-yl)piperazin-1-yl]pent-2-enenitrile]
5 (8) number of patients (percent): Fatigue, Treatment-Related TEAEs, Grade 1
2 (3) number of patients (percent): Fatigue, TEAEs Due to Any Cause, Grade 2 | Headache, Treatment-Related TEAEs, Any grade | Headache, Treatment-Related TEAEs, Grade 1 | Heavy menstrual bleeding, TEAEs Due to Any Cause, Any grade | Hypophosphatemia, TEAEs Due to Any Cause, Any grade | Hypophosphatemia, TEAEs Due to Any Cause, Grade 2 | Muscle spasms, TEAEs Due to Any Cause, Any grade | Muscle spasms, TEAEs Due to Any Cause, Grade 1
6 (10) number of patients (percent): Fatigue, Treatment-Related TEAEs, Any grade
1 (2) number of patients (percent): Fatigue, Treatment-Related TEAEs, Grade 2 | Frequent bowel movements, TEAEs Due to Any Cause, Any grade | Frequent bowel movements, TEAEs Due to Any Cause, Grade 2 | Frequent bowel movements, Treatment-Related TEAEs, Any grade | Frequent bowel movements, Treatment-Related TEAEs, Grade 2 | Heavy menstrual bleeding, TEAEs Due to Any Cause, Grade 1 | Heavy menstrual bleeding, TEAEs Due to Any Cause, Grade 2 | Hot flush, TEAEs Due to Any Cause, Any grade | Hot flush, TEAEs Due to Any Cause, Grade 2 | Hot flush, Treatment-Related TEAEs, Any grade | Hot flush, Treatment-Related TEAEs, Grade 2 | Hypoesthesia, TEAEs Due to Any Cause, Any grade | Hypoesthesia, TEAEs Due to Any Cause, Grade 2 | Hypoesthesia, Treatment-Related TEAEs, Any grade | Hypoesthesia, Treatment-Related TEAEs, Grade 2 | Hypokalemia, TEAEs Due to Any Cause, Any grade | Hypokalemia, TEAEs Due to Any Cause, Grade 1 | Hypokalemia, Treatment-Related TEAEs, Any grade | Hypokalemia, Treatment-Related TEAEs, Grade 1 | Increased white blood cell count, TEAEs Due to Any Cause, Any grade | Increased white blood cell count, TEAEs Due to Any Cause, Grade 2 | Increased white blood cell count, Treatment-Related TEAEs, Any grade | Increased white blood cell count, Treatment-Related TEAEs, Grade 2 | Maculo-papular rash, TEAEs Due to Any Cause, Any grade | Maculo-papular rash, TEAEs Due to Any Cause, Grade 1 | Maculo-papular rash, Treatment-Related TEAEs, Any grade | Maculo-papular rash, Treatment-Related TEAEs, Grade 1 | Malaise, TEAEs Due to Any Cause, Any grade | Malaise, TEAEs Due to Any Cause, Grade 1 | Malaise, Treatment-Related TEAEs, Any grade | Malaise, Treatment-Related TEAEs, Grade 1 | Micturition urgency, TEAEs Due to Any Cause, Any grade | Micturition urgency, TEAEs Due to Any Cause, Grade 1 | Micturition urgency, Treatment-Related TEAEs, Any grade | Micturition urgency, Treatment-Related TEAEs, Grade 1 | Muscle spasms, Treatment-Related TEAEs, Any grade | Muscle spasms, Treatment-Related TEAEs, Grade 1 | Myalgia, TEAEs Due to Any Cause, Any grade | Myalgia, TEAEs Due to Any Cause, Grade 1 | Myalgia, Treatment-Related TEAEs, Any grade | Myalgia, Treatment-Related TEAEs, Grade 1
3 (5) number of patients (percent): Gingival bleeding, TEAEs Due to Any Cause, Any grade | Gingival bleeding, TEAEs Due to Any Cause, Grade 1
7 (12) number of patients (percent): Headache, TEAEs Due to Any Cause, Any grade | Headache, TEAEs Due to Any Cause, Grade 1
